Like-named read-outs stand apart in the source and are kept apart here.
What was measured:
Physalospora piricola = experiment: Fungicide activity, mycelial growth inhibition on PDA plate; format: cell-based; details: 50 μg/mL, P. piricola; read-out: Fungicidal activity inhibition, PP
Botrytis cinerea = experiment: as above; format: cell-based; details: Botrytis cinerea, read-out: Fungicidal activity inhibition, BC
[1] = test system: Phytophthora infestans (Mont) de Bary; experiment: microbe, parasite or virus in culture; format: cell-based; details: for inhibition at 50 µg/mL: Phytophthora infestans, read-out: Fungicidal activity inhibition, PI, 50 μg/mL, P. infestans (Mont.) de Bary
Alternaria solani = experiment: Fungicide activity, mycelial growth inhibition on PDA plate; format: cell-based; details: Alternaria solani, read-out: Fungicidal activity inhibition, AS
TMV [2] = experiment: Anti-TMV activity on tobacco, protection mode; format: in vivo, tobacco mosaic virus; details: Tobacco mosaic virus, 100 μg/mL, read-out: Anti-TMV activity inhibition, Protection effect
Cercospora arachidicola = experiment: Fungicide activity, mycelial growth inhibition on PDA plate; format: cell-based; details: Mycosphaerella arachidis, read-out: Fungicidal activity inhibition, CA
Pellicularia sasakii = experiment: as above; format: cell-based; details: 50 μg/mL, P. sasakii; read-out: Fungicidal activity inhibition, PS
Sclerotinia sclerotiorum = experiment: as above; format: cell-based; details: Sclerotinia sclerotiorum, read-out: Fungicidal activity inhibition, SS
Rhizoctonia cerealis = experiment: as above; format: cell-based; details: Ceratobasidium cereale, read-out: Fungicidal activity inhibition, RC
TMV [3] = experiment: Anti-TMV activity on tobacco, curative mode; format: in vivo, tobacco mosaic virus; details: for inhibition at 100 µg/mL: Tobacco mosaic virus, read-out: Anti-TMV activity inhibition, Curative effect

Compound | inhibition at 50 µg/mL (Physalospora piricola) | inhibition at 50 µg/mL (Botrytis cinerea; 50 μg/mL, B. cinerea) | inhibition at 50 µg/mL [1] | inhibition at 50 µg/mL (Alternaria solani; 50 μg/mL, A. solani) | inhibition at 50 µg/mL (Alternaria solani) | melting point | inhibition at 100 µg/mL (TMV [2]) | inhibition at 50 µg/mL (Cercospora arachidicola; 50 μg/mL, C. arachidicola) | inhibition at 50 µg/mL (Cercospora arachidicola) | inhibition at 50 µg/mL (Pellicularia sasakii) | inhibition at 50 µg/mL (Sclerotinia sclerotiorum; 50 μg/mL, S. sclerotiorum) | inhibition at 50 µg/mL (Sclerotinia sclerotiorum) | inhibition at 50 µg/mL (Rhizoctonia cerealis; 50 μg/mL, R. cerealis) | inhibition at 100 µg/mL (TMV [3]; 100 μg/mL, tobacco) | Anti-TMV activity inhibition, Curative effect (TMV [3]; 100 μg/mL, tobacco) | inhibition at 50 µg/mL (Rhizoctonia cerealis) | inhibition at 50 µg/mL (Botrytis cinerea) | Fungicidal activity inhibition, PI ([1]; 50 μg/mL, P. infestans (Mont.) de Bary) | inhibition at 100 µg/mL (TMV [3])
CO/C=C(/C(=O)OC)c1ccccc1CO/N=C(\C)c1snc(Cl)c1Cl [CL03-49] | 78.3% | 100% | > 40% | 42.9% | > 30% | 100 to 102 °C | 35.9 ± 0.63% | 66.7% | > 30% | 64.7% | 80% | > 40% | 100% | > 30% |  |  |  |  | 
CO/C=C(/C(=O)OC)c1ccccc1CO/N=C/c1snc(Cl)c1Cl [CL03-50] | 78.3% | 100% | > 40% | 57.1% | > 30% | 61 to 63 °C | > 40% | 66.7% | > 30% | 64.7% | 53.3% | > 40% | 100% | > 30% | 48.32 ± 5.88% |  |  |  | 
CO/C=C(/C(=O)OC)c1ccccc1CO/N=C(\N)c1snc(Cl)c1Cl [CL04-03] | 87% | 100% | > 40% | 57.1% | > 30% | 105 to 107 °C | 35.1 ± 0.39% | 100% |  | 58.8% | 100% |  | 100% | > 30% |  |  |  |  | 
CO/C=C(/C(=O)OC)c1ccccc1CO/N=C(\C)CC(O)c1snc(Cl)c1Cl (stereo not shown) [CL04-04-A] | 73.9% | 100% | > 40% | 85.7% |  | 36 to 38 °C |  | 75% |  | 52.9% | 90% |  | 100% | 19.1 ± 2.13% |  |  |  |  | 
CO/N=C(/C(=O)OC)c1ccccc1CO/N=C/c1snc(Cl)c1Cl [CL04-15B] | 62.1% | 100% |  | 100% |  | 88 to 90 °C | 14.7 ± 2.73% | 91.7% |  | 69.2% | 90% |  | 98.2% | 27 ± 4.13% |  |  |  |  | 
CO/N=C(/C(=O)OC)c1ccccc1CO/N=C(\N)c1snc(Cl)c1Cl [CL04-15C] | 71.2% | 100% |  | 52.9% | > 30% | 104 to 106 °C | 25.1 ± 4.33% | 75% |  | 76.9% | 98% |  | 89.1% | 1.52 ± 0.62% |  | > 50% |  |  | 
C#CCNC(=O)/C(=N/OC)c1ccccc1CO/N=C(C)/C=C/c1snc(Cl)c1Cl [CL04-32B] | 64.9% | 47.4% |  | 41% | > 30% | 92 to 93 °C | 23.4 ± 1.02% | 52% | > 30% | 78.4% | 80% | > 40% | 100% |  |  |  | > 45% | 100% | 
CNCC(=O)N[C@@H](CO)C(=O)N[C@H]1[C@H](O)[C@@H](O)[C@H](n2ccc(N)nc2=O)O[C@@H]1C(N)=O [Ningnanmycin, reference compound] |  |  |  |  |  |  |  |  |  |  |  |  |  |  |  |  |  |  | 74.1 ± 2.04%
